Here are results for 14 compounds from patent publication US20240109865A1, “INDAZOLE COMPOUNDS AS KINASE INHIBITORS” (TYRA BIOSCIENCES, INC., priority 2020, published 2024).

In test [1] the target is FGFR1 (Homo sapiens (Human), UniProt P11362). The test can be described thus: Kinase assay, binding constants (Kd), kinase-tagged T7 phage, qPCR. In a few lines:
(§1)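 Competition binding: kinase-tagged T7 phage lysates mixed with immobilized biotinylated ligand on streptavidin beads plus compound (11-point 3-fold dilution series, 0.9% DMSO final). Bound kinase eluted with free ligand and quantified by qPCR. Kd from Hill equation fit, slope fixed at −1.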
For orientation: Real-time PCR tracks product formation cycle by cycle.

Test [2] has as its target FGFR4 (Homo sapiens (Human), UniProt P22455). The description is as above. The essentials: as §1
In test [3] the target is FGFR3 (Homo sapiens (Human), UniProt P22607). Described as above. The essentials: as §1
The target in test [4] is FGFR3 (V555M) (Homo sapiens (Human), UniProt P22607, V555M). Described as above. The note with it: V555M mutant. In a few lines:
as §1

In test [5] the target is FGFR2 (Homo sapiens (Human), UniProt P21802). The test is described as above. The essentials:
as §1

The target of test [6] is FGFR3-BAIAP2L1 Ba/F3 cells (Homo sapiens, UniProt P22607). The test can be described thus: Ba/F3 cell viability assay (CellTiter-Glo 2.0), FGFR3-BAIAP2L1 Ba/F3. It counts as cell-based. The note with it: for Ba/F3 FGFR1/FGFR3 Selectivity: FGFR3 > FGFR1 selectivity ratio in Ba/F3 FGFR fusion cell based assays; for IC50: read-out: Ba/F3 Cells FGFR3 (IC50 nM), FGFR3-BAIAP2L1 Ba/F3 cells, 48 hours, Cell Titer Glo 2.0. The essentials: (§2)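 IL3-independent Ba/F3 lines driven by FGFR1-BCR or FGFR3-BAIAP2L1 fusions, in RPMI1640/10% FBS. 9-dose 10-fold series from 30 μM, triplicate, 48 h at 37 °C; viability by CellTiter-Glo 2.0 ATP luminescence relative to DMSO control, IC50 from 4-parameter sigmoidal fit.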

For test [7], the target named is FGFR1-BCR Ba/F3 cells (Homo sapiens, UniProt P11362). Nature of the test: Ba/F3 cell viability assay (CellTiter-Glo 2.0), FGFR1-BCR Ba/F3. To be noted: read-out: Ba/F3 Cells FGFR1 (IC50 nM), 48 hours, Cell Titer Glo 2.0. It counts as cell-based. In a few lines: as §2
For orientation: ATP-based viability assays read luminescence as a measure of living cells.

FGFR1-BCR Ba/F3 cells, sequence (P11362 22-822 limits assumed, change not shown): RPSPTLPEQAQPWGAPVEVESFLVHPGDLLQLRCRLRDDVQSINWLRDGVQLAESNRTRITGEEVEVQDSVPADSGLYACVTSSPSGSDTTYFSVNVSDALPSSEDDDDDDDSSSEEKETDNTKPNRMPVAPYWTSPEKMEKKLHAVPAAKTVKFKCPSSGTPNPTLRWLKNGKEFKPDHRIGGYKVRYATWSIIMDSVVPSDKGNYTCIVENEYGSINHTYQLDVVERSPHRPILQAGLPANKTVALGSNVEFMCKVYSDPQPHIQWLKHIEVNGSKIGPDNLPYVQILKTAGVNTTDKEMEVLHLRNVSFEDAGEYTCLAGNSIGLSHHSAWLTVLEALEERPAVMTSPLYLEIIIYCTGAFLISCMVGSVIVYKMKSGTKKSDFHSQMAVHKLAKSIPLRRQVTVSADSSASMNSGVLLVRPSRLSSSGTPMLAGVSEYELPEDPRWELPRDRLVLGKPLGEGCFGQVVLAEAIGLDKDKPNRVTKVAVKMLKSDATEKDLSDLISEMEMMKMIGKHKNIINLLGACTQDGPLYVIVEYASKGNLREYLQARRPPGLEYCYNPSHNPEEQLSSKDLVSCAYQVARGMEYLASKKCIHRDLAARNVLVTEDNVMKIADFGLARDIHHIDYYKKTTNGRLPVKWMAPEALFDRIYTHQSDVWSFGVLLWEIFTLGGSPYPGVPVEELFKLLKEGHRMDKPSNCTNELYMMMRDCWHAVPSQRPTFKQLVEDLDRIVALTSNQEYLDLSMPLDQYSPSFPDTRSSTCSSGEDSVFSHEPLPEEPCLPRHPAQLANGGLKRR
FGFR1, sequence (P11362 22-822): as the sequence (P11362 22-822 limits assumed, change not shown) above
FGFR3-BAIAP2L1 Ba/F3 cells, sequence (P22607 23-806 limits assumed, change not shown): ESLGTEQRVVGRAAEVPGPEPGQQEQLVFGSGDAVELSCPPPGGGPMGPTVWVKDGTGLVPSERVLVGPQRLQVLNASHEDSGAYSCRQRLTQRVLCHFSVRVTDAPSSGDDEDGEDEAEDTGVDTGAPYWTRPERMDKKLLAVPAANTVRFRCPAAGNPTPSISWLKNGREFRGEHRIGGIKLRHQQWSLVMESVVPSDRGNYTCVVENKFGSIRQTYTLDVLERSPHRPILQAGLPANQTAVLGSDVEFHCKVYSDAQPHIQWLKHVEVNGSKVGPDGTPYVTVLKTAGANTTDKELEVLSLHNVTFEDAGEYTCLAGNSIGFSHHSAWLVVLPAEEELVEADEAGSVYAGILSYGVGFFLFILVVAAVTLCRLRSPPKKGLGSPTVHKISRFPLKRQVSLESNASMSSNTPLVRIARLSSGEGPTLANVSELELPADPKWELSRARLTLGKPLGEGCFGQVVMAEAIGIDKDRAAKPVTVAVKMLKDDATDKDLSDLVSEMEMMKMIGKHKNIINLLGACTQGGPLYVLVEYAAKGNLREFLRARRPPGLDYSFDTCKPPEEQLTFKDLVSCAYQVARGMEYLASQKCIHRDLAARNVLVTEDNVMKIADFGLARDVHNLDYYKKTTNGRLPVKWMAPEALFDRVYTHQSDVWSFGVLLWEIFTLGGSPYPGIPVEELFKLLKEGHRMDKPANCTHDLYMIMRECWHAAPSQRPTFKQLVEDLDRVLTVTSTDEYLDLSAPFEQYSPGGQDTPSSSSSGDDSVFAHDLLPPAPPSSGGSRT
FGFR3, sequence (P22607 23-806): as the sequence (P22607 23-806 limits assumed, change not shown) above
FGFR2, sequence (P21802 22-821): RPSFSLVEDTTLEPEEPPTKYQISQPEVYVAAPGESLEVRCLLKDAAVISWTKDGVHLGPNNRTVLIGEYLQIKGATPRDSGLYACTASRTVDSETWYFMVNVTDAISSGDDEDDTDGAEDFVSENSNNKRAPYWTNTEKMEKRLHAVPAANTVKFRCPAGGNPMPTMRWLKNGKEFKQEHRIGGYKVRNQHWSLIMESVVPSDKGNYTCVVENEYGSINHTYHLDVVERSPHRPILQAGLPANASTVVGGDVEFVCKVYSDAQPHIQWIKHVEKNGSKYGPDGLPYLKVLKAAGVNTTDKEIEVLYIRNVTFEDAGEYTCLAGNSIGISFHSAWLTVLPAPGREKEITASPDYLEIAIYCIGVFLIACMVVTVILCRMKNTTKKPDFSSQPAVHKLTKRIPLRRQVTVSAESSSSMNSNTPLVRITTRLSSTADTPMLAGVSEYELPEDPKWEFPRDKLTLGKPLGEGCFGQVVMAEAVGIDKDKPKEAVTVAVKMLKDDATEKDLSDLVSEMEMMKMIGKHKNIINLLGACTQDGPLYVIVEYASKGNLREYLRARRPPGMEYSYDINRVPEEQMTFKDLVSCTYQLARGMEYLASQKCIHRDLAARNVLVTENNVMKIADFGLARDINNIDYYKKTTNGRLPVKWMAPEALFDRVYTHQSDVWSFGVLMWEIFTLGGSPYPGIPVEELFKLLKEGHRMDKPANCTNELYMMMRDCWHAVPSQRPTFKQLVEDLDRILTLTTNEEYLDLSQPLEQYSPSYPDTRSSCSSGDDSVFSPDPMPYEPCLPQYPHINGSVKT
FGFR4, sequence (P22455 22-802): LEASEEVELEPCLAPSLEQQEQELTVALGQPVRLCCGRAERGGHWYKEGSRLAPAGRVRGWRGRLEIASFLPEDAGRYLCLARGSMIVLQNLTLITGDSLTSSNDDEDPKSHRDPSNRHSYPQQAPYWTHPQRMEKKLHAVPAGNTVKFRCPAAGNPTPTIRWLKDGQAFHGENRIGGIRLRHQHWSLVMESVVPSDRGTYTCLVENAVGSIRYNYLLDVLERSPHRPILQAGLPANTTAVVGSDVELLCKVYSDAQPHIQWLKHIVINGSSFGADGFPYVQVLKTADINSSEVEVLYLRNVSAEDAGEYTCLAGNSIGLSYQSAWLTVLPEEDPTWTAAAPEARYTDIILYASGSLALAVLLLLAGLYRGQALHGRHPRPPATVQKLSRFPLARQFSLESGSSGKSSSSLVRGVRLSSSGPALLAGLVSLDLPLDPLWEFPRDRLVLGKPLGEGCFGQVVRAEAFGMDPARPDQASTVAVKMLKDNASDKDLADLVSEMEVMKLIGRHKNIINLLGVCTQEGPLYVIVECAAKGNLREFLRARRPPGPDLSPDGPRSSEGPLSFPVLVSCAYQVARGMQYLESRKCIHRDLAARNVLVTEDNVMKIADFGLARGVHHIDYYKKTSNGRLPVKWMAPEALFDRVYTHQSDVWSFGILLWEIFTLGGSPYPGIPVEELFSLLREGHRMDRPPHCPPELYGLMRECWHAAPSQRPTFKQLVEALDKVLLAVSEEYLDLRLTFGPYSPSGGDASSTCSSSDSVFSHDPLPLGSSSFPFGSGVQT
FGFR3 (V555M), sequence (P22607 23-806 V555M): as the sequence (P22607 23-806 limits assumed, change not shown) above, with V533M counted along it

For `C[C@@H](Oc1ccc2[nH]nc(-c3cnc(N4CC5(CCN(S(C)(=O)=O)CC5)C4)nc3)c2c1)c1c(Cl)cncc1Cl` [Example 137, 5-[(1R)-1-(3,5-dichloro-4-pyridyl)ethoxy]-3-[2-(7-methylsulfonyl-2,7-diazaspiro[3.5]nonan-2-yl)pyrimidin-5-yl]-1H-indazole], the Kd (as a rule, the concentration at which binding is half-saturated) in test [1] lay in the range of 20 to 100 nM; in test [2] it was 1 to 20 nM; in test [3] it was 1 to 20 nM; in test [4], 1 to 20 nM; in test [5] it was 20 to 100 nM. Moreover, the “Ba/F3 FGFR1/FGFR3 Selectivity” value in test [6] is recorded as 11. Further, the values for the IC50 in test [6] and in test [7] were 1 to 20 nM and 100 to 300 nM, respectively.

With `COC(=O)N1CCCC2(C1)CN(c1ncc(-c3n[nH]c4ccc(O[C@H](C)c5c(Cl)cncc5Cl)cc34)cn1)C2` [Example 138, methyl 2-[5-[5-[(1R)-1-(3,5-dichloro-4-pyridyl)ethoxy]-1H-indazol-3-yl]pyrimidin-2-yl]-2,8-diazaspiro[3.5]nonane-8-carboxylate], the Kd was in the range of 20 to 100 nM in test [1]; 1 to 20 nM in test [2]; 1 to 20 nM in test [3]; 1 to 20 nM in test [4]; 20 to 100 nM in test [5]. Moreover, in test [6], the “Ba/F3 FGFR1/FGFR3 Selectivity” value is listed as 8. Besides, the results for the IC50 in test [6] and in test [7] were 20 to 100 nM and more than 300 nM, respectively.

Take `Cc1cncc(C)c1[C@H](C)Oc1ccc2[nH]nc(-c3ccc(N4CC5(C4)CN(S(C)(=O)=O)C5)nc3)c2c1` [Example 140, 5-[(1S)-1-(3,5-dimethyl-4-pyridyl)ethoxy]-3-[6-(2-methylsulfonyl-2,6-diazaspiro[3.3]heptan-6-yl)-3-pyridyl]-1H-indazole]: the Kd in test [1] is more than 300 nM; in test [2], more than 300 nM; in test [3], 20 to 100 nM; in test [4] it was 1 to 20 nM; in test [5] it was more than 300 nM. The “Ba/F3 FGFR1/FGFR3 Selectivity” value in test [6] turned out to be 19. Also, the IC50 is 100 to 300 nM in test [6] and more than 300 nM in test [7].

With `Cc1cnnc(C)c1[C@@H](C)Oc1ccc2[nH]nc(-c3cnc(N4CC5(CCS(=O)(=O)C5)C4)nc3)c2c1` [Example 141, 2-[5-[5-[(1R)-1-(3,5-dimethylpyridazin-4-yl)ethoxy]-1H-indazol-3-yl]pyrimidin-2-yl]-6λ^6-thia-2-azaspiro[3.4]octane 6,6-dioxide], the dissociation constant (Kd) is 20 to 100 nM in test [1]; 1 to 20 nM in test [2]; 1 to 20 nM in test [3]; 1 to 20 nM in test [4]; 20 to 100 nM in test [5]. Further, the “Ba/F3 FGFR1/FGFR3 Selectivity” value in test [6] was found to be 3. For the same compound, the IC50 in test [6] and in test [7] was more than 300 nM throughout.

Take `COC(=O)N1CC2(C1)CN(c1ncc(-c3n[nH]c4ccc(O[C@H](C)c5c(C)cnnc5C)cc34)cn1)C2` [Example 143, methyl 6-[5-[5-[(1R)-1-(3,5-dimethylpyridazin-4-yl)ethoxy]-1H-indazol-3-yl]pyrimidin-2-yl]-2,6-diazaspiro[3.3]heptane-2-carboxylate]: the equilibrium dissociation constant (Kd) in test [1] was 100 to 300 nM; in test [2], 1 to 20 nM; in test [3], 1 to 20 nM; in test [4], 1 to 20 nM; in test [5], 20 to 100 nM. Besides, the “Ba/F3 FGFR1/FGFR3 Selectivity” value in test [6] is reported as 14. For the same compound, the results for the IC50 in test [6] and in test [7] were 100 to 300 nM and more than 300 nM, respectively.

Regarding `Cc1cnnc(C)c1[C@@H](C)Oc1ccc2[nH]nc(-c3ccc(N4CC5(CCS(=O)(=O)C5)C4)nc3)c2c1` [Example 144, 2-[5-[5-[(1R)-1-(3,5-dimethylpyridazin-4-yl)ethoxy]-1H-indazol-3-yl]-2-pyridyl]-6λ^6-thia-2-azaspiro[3.4]octane 6,6-dioxide], the Kd in test [1], in test [2], in test [3], in test [4] and in test [5] was 1 to 20 nM in each case. In test [6], the “Ba/F3 FGFR1/FGFR3 Selectivity” value was determined as 33. The IC50 in test [6] was 20 to 100 nM; in test [7], more than 300 nM.

Consider `Cc1cnnc(C)c1[C@H](C)Oc1ccc2[nH]nc(-c3ccc(N4CC5(CCS(=O)(=O)C5)C4)nc3)c2c1` [Example 145, 2-[5-[5-[(1S)-1-(3,5-dimethylpyridazin-4-yl)ethoxy]-1H-indazol-3-yl]-2-pyridyl]-6λ^6-thia-2-azaspiro[3.4]octane 6,6-dioxide], for which the Kd in test [1] is more than 300 nM; in test [2], 100 to 300 nM; in test [3], 20 to 100 nM; in test [4], 1 to 20 nM; in test [5], 20 to 100 nM. Also, the “Ba/F3 FGFR1/FGFR3 Selectivity” value in test [6] worked out at 2. Moreover, the IC50 in test [6] and in test [7] was more than 300 nM each time.

Take `CCOC(=O)N1CC2(C1)CN(c1ncc(-c3n[nH]c4ccc(O[C@H](C)c5c(C)cnnc5C)cc34)cn1)C2` [Example 146, ethyl 6-[5-[5-[(1R)-1-(3,5-dimethylpyridazin-4-yl)ethoxy]-1H-indazol-3-yl]pyrimidin-2-yl]-2,6-diazaspiro[3.3]heptane-2-carboxylate]: the Kd in test [1] was 100 to 300 nM; in test [2] it was 1 to 20 nM; in test [3], 1 to 20 nM; in test [4], 1 to 20 nM; in test [5], 20 to 100 nM. In addition, the “Ba/F3 FGFR1/FGFR3 Selectivity” value in test [6] is on record as 15. Also, the IC50 in test [6] is 100 to 300 nM; in test [7], more than 300 nM.

For the compound `Cc1cnnc(C)c1[C@@H](C)Oc1ccc2[nH]nc(-c3ccc(N4CC5(C4)CN(S(C)(=O)=O)C5)nc3)c2c1` [Example 148, 5-[(1R)-1-(3,5-dimethylpyridazin-4-yl)ethoxy]-3-[6-(2-methylsulfonyl-2,6-diazaspiro[3.3]heptan-6-yl)-3-pyridyl]-1H-indazole], the Kd in test [1], in test [2], in test [3], in test [4] and in test [5] was 1 to 20 nM each time. Also, the “Ba/F3 FGFR1/FGFR3 Selectivity” value in test [6] came out at 16. The figures for the IC50 in test [6] and in test [7] were 20 to 100 nM and more than 300 nM, respectively.

Turning to `C[C@H](Oc1ccc2[nH]nc(-c3ccc(N4CC5(C4)CN(S(C)(=O)=O)C5)nc3)c2c1)c1c(Cl)cncc1Cl` [Example 160, 5-[(1S)-1-(3,5-dichloro-4-pyridyl)ethoxy]-3-[6-(2-methylsulfonyl-2,6-diazaspiro[3.3]heptan-6-yl)-3-pyridyl]-1H-indazole], the Kd in test [1] was more than 300 nM; in test [2], 100 to 300 nM; in test [3], 20 to 100 nM; in test [4], 1 to 20 nM; in test [5], 100 to 300 nM. In test [6], the “Ba/F3 FGFR1/FGFR3 Selectivity” value is given as 17. Moreover, the IC50 was 100 to 300 nM in test [6] and more than 300 nM in test [7].

Take `C[C@@H](Oc1ccc2[nH]nc(-c3ccc(N4CC5(CCCN(S(C)(=O)=O)C5)C4)nc3)c2c1)c1c(Cl)cncc1Cl` [Example 162, 5-[(1R)-1-(3,5-dichloro-4-pyridyl)ethoxy]-3-[6-(8-methylsulfonyl-2,8-diazaspiro[3.5]nonan-2-yl)-3-pyridyl]-1H-indazole]: the Kd is 20 to 100 nM in test [1]; 1 to 20 nM in test [2]; 1 to 20 nM in test [3]; 1 to 20 nM in test [4]; 1 to 20 nM in test [5]. Further, the “Ba/F3 FGFR1/FGFR3 Selectivity” value in test [6] is listed as 12. Further, the IC50 in test [6] is 1 to 20 nM; in test [7] it was 100 to 300 nM.

`C[C@@H](Oc1ccc2[nH]nc(-c3ccc(N4CC5(CCN(S(C)(=O)=O)C5)C4)nc3)c2c1)c1c(Cl)cncc1Cl` [Example 163, 5-[(1R)-1-(3,5-dichloro-4-pyridyl)ethoxy]-3-[6-(7-methylsulfonyl-2,7-diazaspiro[3.4]octan-2-yl)-3-pyridyl]-1H-indazole]: the Kd in test [1], in test [2], in test [3], in test [4] and in test [5] was 1 to 20 nM throughout. Moreover, the “Ba/F3 FGFR1/FGFR3 Selectivity” value in test [6] came to 17. The figures for the IC50 in test [6] and in test [7] were 1 to 20 nM and 20 to 100 nM, respectively.

Take `COC(=O)N1CCCC2(C1)CN(c1ccc(-c3n[nH]c4ccc(O[C@H](C)c5c(Cl)cncc5Cl)cc34)cn1)C2` [Example 165, methyl 2-[5-[5-[(1R)-1-(3,5-dichloro-4-pyridyl)ethoxy]-1H-indazol-3-yl]-2-pyridyl]-2,8-diazaspiro[3.5]nonane-8-carboxylate]: the dissociation constant (Kd) in test [1] was 20 to 100 nM; in test [2], 1 to 20 nM; in test [3], 1 to 20 nM; in test [4], 1 to 20 nM; in test [5], 1 to 20 nM. For the same compound, the “Ba/F3 FGFR1/FGFR3 Selectivity” value in test [6] stood at 16. For the same compound, the IC50 in test [6] fell in the range of 1 to 20 nM; in test [7], 100 to 300 nM.

Take `C[C@@H](Oc1ccc2[nH]nc(-c3cnn(C4CCNCC4)c3)c2c1)c1cc(F)cc(F)c1` [Example 166, 5-[(1R)-1-(3,5-difluorophenyl)ethoxy]-3-[1-(4-piperidyl)pyrazol-4-yl]-1H-indazole]: the Kd is 20 to 100 nM in test [1]; more than 300 nM in test [2]; 1 to 20 nM in test [3]; 1 to 20 nM in test [4]; 1 to 20 nM in test [5]. Besides, the “Ba/F3 FGFR1/FGFR3 Selectivity” value in test [6] is reported as 6. Further, the IC50 is 100 to 300 nM in test [6] and more than 300 nM in test [7].
